Data: PubChem BioAssay (NCI)
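Values below derive from 48-hour exposures of cells grown in 96-well plates, with endpoints linearly interpolated between the two concentrations bracketing the appropriate inhibition level. Abbreviation: GI50, concentration required for 50% inhibition of growth. TGI: total growth inhibition.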

How the values were obtained:
Test in all cases: growth of human tumour cells (NCI), 48 h
U251 CNS = system: U251 CNS
SK-OV-3 ovarian = system: SK-OV-3 ovarian
BT-549 breast = system: BT-549 breast
NCI-H226 lung = system: NCI-H226 lung
M14 melanoma = system: M14 melanoma
NCI-H23 lung = system: NCI-H23 lung
HT29 colon = system: HT29 colon
COLO 205 colon = system: COLO 205 colon
SF-295 CNS = system: SF-295 CNS
MALME-3M melanoma = system: MALME-3M melanoma

SMILES	GI50 (U251 CNS)	TGI (U251 CNS)	GI50 (SK-OV-3 ovarian)	TGI (SK-OV-3 ovarian)	GI50 (BT-549 breast)	TGI (BT-549 breast)	GI50 (NCI-H226 lung)	TGI (NCI-H226 lung)	GI50 (M14 melanoma)	TGI (M14 melanoma)	GI50 (NCI-H23 lung)	TGI (NCI-H23 lung)	GI50 (HT29 colon)	TGI (HT29 colon)	GI50 (COLO 205 colon)	TGI (COLO 205 colon)	GI50 (SF-295 CNS)	TGI (SF-295 CNS)	GI50 (MALME-3M melanoma)	TGI (MALME-3M melanoma)
Cc1cc2c(C(C)C)c(O)c(O)c(/C=N/O)c2c(O)c1-c1c(C)cc2c(C(C)C)c(O)c(O)c(/C=N/O)c2c1O	1.89 µM	11.8 µM	3.6 µM	11.9 µM	2.42 µM	13.8 µM	2.87 µM	9.72 µM	2.46 µM	10.1 µM	1.92 µM	5.74 µM	3.19 µM	12.5 µM	2.88 µM	9.72 µM	2.61 µM	13.3 µM	3.91 µM	20.4 µM
O=C(NNC1=NS(=O)(=O)c2ccccc2N1c1ccccc1)c1cnccn1	> 100 µM	> 100 µM	> 100 µM	> 100 µM	> 100 µM	> 100 µM	> 100 µM	> 100 µM	> 100 µM	> 100 µM	> 100 µM	> 100 µM	> 100 µM	> 100 µM	> 100 µM	> 100 µM	> 100 µM	> 100 µM	> 100 µM	> 100 µM
CCOC(=O)C(Cc1ccccc1)n1c(O)c(/C=N/c2ncc(Cc3ccc(Cl)cc3Cl)s2)sc1=S (centres undefined)	2.51 µM	15 µM	2.38 µM	11.8 µM	2.37 µM	8.23 µM	3.29 µM	> 100 µM	3.02 µM	16.7 µM	1.9 µM	12.4 µM	2.24 µM	7.7 µM	1.66 µM	3.34 µM	2.31 µM	6.84 µM	2.77 µM	9.25 µM
CC1(C)CCC2(C(=O)O)C(O)CC3(C)C(=CCC4C5(C)CCC(OC6OCC(O)C(O)C6OC6OCC(O)C(O)C6OC6OCC(O)C(OC7OC(CO)C(O)C(O)C7O)C6O)C(C)(C)C5CCC43C)C2C1 (centres undefined)	–	> 100 µM	–	40.2 µM	–	86.4 µM	–	> 100 µM	–	> 100 µM	–	49.7 µM	–	> 100 µM	–	> 100 µM	–	42.8 µM	–	78.4 µM
Cn1cc(Nc2nccc(-c3ccc4c(c3)CN(C3COC3)CC[C@H]4NC(=O)c3cn(C(C)(C)C)nn3)n2)cn1	> 100 µM	> 100 µM	62.5 µM	> 100 µM	> 100 µM	> 100 µM	38.9 µM	> 100 µM	36.6 µM	> 100 µM	> 100 µM	> 100 µM	33 µM	> 100 µM	30.6 µM	> 100 µM	> 100 µM	> 100 µM	38 µM	> 100 µM
C/C=C(/C)C(=O)OC1C=C(CO)C(=O)C(OC(=O)C2(C)OC2C)C1C(C)C (centres undefined)	1.52 µM	2.85 µM	4.45 µM	14.3 µM	2.02 µM	4.35 µM	3.55 µM	13.7 µM	1.58 µM	3.49 µM	2.09 µM	4.88 µM	1.66 µM	3.38 µM	1.85 µM	3.43 µM	2.62 µM	8.16 µM	1.74 µM	3.53 µM
COC(=O)C1C(=O)C(C(=O)OC)C2CCC1N2C (centres undefined)	–	> 100 µM	–	> 100 µM	–	27.3 µM	–	> 94.9 µM	–	> 100 µM	–	–	–	> 100 µM	–	> 100 µM	–	> 100 µM	–	51.9 µM
